Results on one compound are retold here after patent US20260191843A1, “METHODS AND MATERIALS FOR TREATING BURNS” (The Penn State Research Foundation, priority 2022, published 2026).

Entries after “also recorded” stand apart in the source; their conditions may differ.

Assay [1] has as its system deep-partial thickness burn wound on the mouse dorsum. Put plainly: Burn wound healing in mice: wound area and percentage of wound closure. It counts as in vivo, wild-type C57BL/6 mouse. As to the method:
(§1) Place the 8-10-week-old wild-type C57BL/6 mouse on its side on a sterile paper sheet. Anesthesia was achieved and maintained with isoflurane utilizing an induced with an intraperitoneal injection of ketamine (60 mg/kg) and xylazine (4 mg/kg). An adequate depth of anesthesia was ensured via lack of a withdrawal reflex when a toe pinch was performed. The depth of anesthesia was monitored as well as respiration and mucous membrane color (pink: normal, pale: blood loss, blue: cyanosis). The surgeon(s) used sterile gloves, mask and a clean lab coat. Sterile surgical instruments (autoclaved) were used during all survival surgeries. The skin was prepared for creation of wound on the dorsal and side skin (from neck to tail) by shaving with a mechanical shaver and then applying a hair removal cream on the skin for 3-5 minutes. Hair was removed completely by gently wiping the skin with cotton balls soaked in warm water. Skin disinfection around the incision site was done using 70% ethanol and betadine for 3 times. Then, the dorsal skin was folded and raised cranially and caudally at the midline using index fingers and thumbs, and the animal was placed in a lateral position. The burn wound was created by contacting a 10 mm diameter brass heating device maintained at 100° C. to the mouse dorsum at a constant pressure. The device remained in contact with the skin for 4 seconds in order to create a deep-partial thickness burn. After burn wound creation, the wound site was photographed, the wound area was circled using permanent pen marker, and the wound surface was covered with a TEGADERM™ (3M) sterile transparent dressing. After surgery, mice were given SR Buprenorphine (0.05 mg/kg) for post-operative analgesia. Then, mice were placed in a clean cage on the heating pad for 30 minutes to help the recovery process. Immediately after the recovery, mice were randomly grouped and treated with either with 4-AP (systemic, ip) or saline (control).
Functional analysis of the burn wound area was performed by placing a transparent sheet on the surface of the circled wound, and placing a ruler close to the burn wound to capture photographs of individual wounds on 0, 3, 7, 10, 14, 18, 21, and 26 days. The wound size of each individual mice was measured and compared to zero day wound diameter from the circled sheet. The percentage of wound closure was calculated using this formula: (area of original wound-area of the actual burn wound)/area of original burn wound×100.

For assay [2] the test system is unchanged. Put plainly: Morphometric burn wound healing assessment at day 26 (H&E and Masson's trichrome staining). It counts as in vivo, wild-type C57BL/6 mouse. As to the method: as §1, with “(control). […]” for “(control).”
Where [3] appears, read: 4-AP treated vs saline-treated mice.

`Nc1ccncc1` [4-AP, 4-aminopyridine]: the “acceleration of wound closure” value in assay [1] (by day 3, systemic 4-AP vs saline, P between 0.01 and 0.05) is reported as “significant increase in wound closure by day 3; also recorded: accelerated wound closure by day 3”. Moreover, the closed wounds result in assay [1] (by day 26, systemic 4-AP) is recorded as “closed wounds by day 26”. In addition, the “reduced wound area (relative to initial wound area)” value in assay [1] (day 5, systemic (ip) 4-AP, saline treated animals showed 25% expansion of wound area) came out at 5%. Moreover, in assay [1] (systemic 4-AP vs saline), the “protection from expansion of wound size (necrosis and apoptosis at zone of stasis)” value is listed as “significant burn wound protection from expansion of wound; also recorded: significantly prevented expansion of wound size”. Besides, in assay [1] (systemic 4-AP vs systemic saline), the “burn wound closure and tissue regeneration as compared to control animals” value is “improved burn wound closure and tissue regeneration”. In assay [2] (setting [3]), the “collagen deposition in the healing wound (Masson's Trichrome)” value is recorded as “elevated collagen deposition” and the “thickness of newly formed epidermis within the healed wound (H&E)” value is on record as “significantly thicker”. For the same compound, the re-epithelialization entry in assay [2] (not completed in saline-treated mice) was “re-epithelialization was complete”.
